Results on eight molecules are retold here after US20240016786A1, “GLUCOSIDASE INHIBITORS FOR THE TREATMENT AND PREVENTION OF PULMONARY INFECTIONS” (priority 2020, published 2024).

Structures are written as SMILES. Values after ≈ are worked out from the molar mass of the structure shown. Read-outs that look alike come from different tables or passages of the source.

Data set [1] relates to SARS-Cov-2 Germany/BavPat1/2020. As to the kind of experiment: SARS-CoV-2 Virospot reduction assay (Viroclinics), Vero E6 cells. The class given is cell-based. How it is done: SARS-CoV-2 testing was carried out by the independent contract research organization Viroclinics, Netherlands, using the SARS—CoV-2 Virospot reduction assay. This is a high throughput assay to determine the IC50/IC90 (also termed EC50/EC90) of putative antiviral compounds as compared to other assay formats (such as traditional plaque count assays), and improved traceability from raw data to results. The assay measures drug or antibody-mediated reduction of virus propagation in cell monolayers, by virus-specific immunostaining and automated imaging of infected cells. Automated counting of the number of infected foci (i.e., “spots”) provides the raw data for IC50/IC90 calculations.
A serial dilution series of the test article is mixed with a fixed amount of virus and the virus/inhibitor is added to Vero E6 cells. Virus control wells without inhibitor and cell controls without drug and virus are included. Viral propagation is measured after 16-24 h incubation by TrueBlue immunostaining of infected cells and automated counting of viral “spots” (corresponding to area of viral growth and protein expression) and the IC50 value is calculated using 4 replicates.
Adherent cells were seeded in multi-well plates. Cell cultures were inoculated with a standardized amount of virus, in the absence and presence of serial compound dilutions, followed by 18-24 hours of incubation and an appropriate virus detection method (Immunostaining and count spots using a CTL Immunospot Image Analyser).
Virus signals were detected in presence of each compound concentration determine the 50% inhibitory concentration (IC50) and the 90% inhibitory concentration (IC90). The IC50 and IC90 values were calculated from the virus signals using the method described by Zielinska et al. (Virol J. 2005, 2(84)).
Remdesivir was used as a positive control.
Although cytotoxicity was not directly measured, the assay required intact cell monolayers to deliver a result. Severe cytotoxicity would be evident upon visual inspection and any deleterious effect of compound upon cell health is likely to negatively impact the formation of “spots”. This was not reported.

Another data set deals with SARS-Cov-2 SA (B.1.351). Described as above. Format: cell-based.
The subject of another data set is SARS-Cov-2 UK (B.1.1.7). Described as above. Format: cell-based.
The test system of data set [2] is SARS-CoV-2. As to the kind of experiment: SARS-CoV-2 Virospot reduction assay, (strain not specified). Format: cell-based. Conditions: for activity against strains of SARS-CoV-2: good in vitro activity e.g. IC50<100 μg/mL.
In data set [3] the test system is SARS-CoV-2. The following applies: Huh7-hACE2 cells; cited from earlier work.
Data set [4] concerns Huh7-hACE2 cells. Conditions: cited from earlier work.
The nature of data set [5]: Hygroscopicity observed on recovery of spray dried material. The class given is physicochemical. The following applies: on collection/recovery after spray drying.
The subject of the next data set is SARS-CoV-1. The following applies: SARS-CoV-1 in vitro; cited from earlier work.
Data set [6] concerns Huh7-hACE2 cells. The following applies: cited from earlier work. The source holds these as a separate data set.
Another data set concerns cells in culture. Conditions: cited from earlier work.
[7] abbreviates: Severe acute respiratory syndrome coronavirus 2, Vero C1008, read-out: IC50.
Where [8] appears, read: Severe acute respiratory syndrome coronavirus 2, Vero C1008, read-out: IC90.
Setting [9] is: Severe acute respiratory syndrome coronavirus 2, Virospot reduction assay.

The IC50 is the concentration needed to halve the response being measured. The IC90 is the concentration needed for an effect of 90%. Turning to `OC[C@@H]1[C@@H](O)[C@H](O)[C@@H](O)CN1CCCCCOCC12CC3CC(CC(C3)C1)C2` [AMP-DNM, N-adamantanemethyloxypentyl-1-deoxynojirimycin], the IC50 amounted to 8.3 µg/mL (≈ 20.9 µM) in [1], 2.7 µg/mL (≈ 6.79 µM) in the data set on SARS-Cov-2 SA (B.1.351) and 7.7 µg/mL (≈ 19.4 µM) with SARS-Cov-2 UK (B.1.1.7). The IC90 in data set [1] worked out at 28.6 µg/mL (≈ 71.9 µM); in the data set with SARS-Cov-2 SA (B.1.351) it was 24.8 µg/mL (≈ 62.4 µM); in the data set with SARS-Cov-2 UK (B.1.1.7), 34.4 µg/mL (≈ 86.5 µM). Further, the “activity against strains of SARS-CoV-2” value in the data set on SARS-CoV-2 [2] is on record as “active against at least three strain”.
In the case of `C[C@H]1O[C@H](O[C@H]2[C@H](O)[C@@H](O)[C@@H](O[C@H]3[C@H](O)[C@@H](O)C(O)O[C@@H]3CO)O[C@@H]2CO)[C@H](O)[C@@H](O)[C@@H]1N[C@H]1C=C(CO)[C@@H](O)[C@H](O)[C@H]1O` (stereo partly drawn) [Acarbose], the IC50 (in [1] (setting [7]); in the data set with SARS-Cov-2 SA (B.1.351) (setting [7]); with SARS-Cov-2 UK (B.1.1.7) (setting [7])) was more than 200 µg/mL in each case. In addition, the IC90 (in data set [1] (setting [8]); in the data set with SARS-Cov-2 SA (B.1.351) (setting [8]); with SARS-Cov-2 UK (B.1.1.7) (setting [8])) was more than 200 µg/mL in each case.
A word on the EC50: it is the concentration giving half of the maximal effect. Turning to `CCCC(=O)O[C@H]1CN2CC[C@H](O)[C@@H]2[C@@H](O)[C@@H]1O` [Celgosivir (6-O-butanoylcastanospermine), 6-O-butanoylcastanospermine], the IC50 (in data set [1] (setting [7]); in the data set with SARS-Cov-2 SA (B.1.351) (setting [7]); with SARS-Cov-2 UK (B.1.1.7) (setting [7]); with SARS-CoV-2 [2] (setting [9])) was more than 200 µg/mL in each case. For the same molecule, the IC90 (in [1] (setting [8]); in the data set with SARS-Cov-2 SA (B.1.351) (setting [8]); with SARS-Cov-2 UK (B.1.1.7) (setting [8])) was more than 200 µg/mL throughout. Also, the EC50 in the data set with SARS-CoV-2 [3] was 1 ± 0.2 µM. The “lack of cytotoxicity up to the highest concentrations tested” value with Huh7-hACE2 cells [4] (viable nuclei, Huh7-hACE2 cells) is 500 µM.
`OCCN1C[C@H](O)[C@@H](O)[C@H](O)[C@H]1CO` [Glyset (Miglitol), miglitol]: the results for the IC50 (in data set [1] (setting [7]); with SARS-Cov-2 SA (B.1.351) (setting [7]); with SARS-Cov-2 UK (B.1.1.7) (setting [7])) were more than 200 µg/mL, 90 µg/mL (≈ 434 µM) and more than 200 µg/mL, respectively. Further, the IC90 (in [1] (setting [8]); with SARS-Cov-2 SA (B.1.351) (setting [8]); in the data set on SARS-Cov-2 UK (B.1.1.7) (setting [8])) was more than 200 µg/mL each time. The “activity against strains of SARS-CoV-2” value with SARS-CoV-2 [2] was “active against at least one strain”. Besides, the hygroscopicity entry in data set [5] was “extremely hygroscopic”.
For the molecule `CC(C)(C)NC(=O)N(CCCCCCN1C[C@H](O)[C@@H](O)[C@H](O)[C@H]1CO)C1CCCCC1` [IHVR-19029, 3-tert-butyl-1-cyclohexyl-1-[6-[(2R,3R,4R,5S)-3,4,5-trihydroxy-2-(hydroxymethyl)piperidin-1-yl]hexyl]urea], the IC50 was found to be 48.5 µg/mL (≈ 109 µM) in data set [1] (setting [7]), 5.5 µg/mL (≈ 12.4 µM) in the data set on SARS-Cov-2 SA (B.1.351) (setting [7]) and 58.5 µg/mL (≈ 132 µM) in the data set with SARS-Cov-2 UK (B.1.1.7) (setting [7]). Besides, the IC90 (in [1] (setting [8]); in the data set with SARS-Cov-2 SA (B.1.351) (setting [8]); in the data set with SARS-Cov-2 UK (B.1.1.7) (setting [8])) was more than 200 µg/mL throughout. Further, in the data set with SARS-CoV-2 [2], the “activity against strains of SARS-CoV-2” value is “active against at least three strain”.
The CC50 is the concentration giving 50% cytotoxicity. On to `CCCCN1C[C@H](O)[C@@H](O)[C@H](O)[C@H]1CO` [Miglustat (NB-DNJ), N-butyl-1-deoxynojirimycin], for which the IC50 in data set [1] (setting [7]) is more than 200 µg/mL; with SARS-Cov-2 SA (B.1.351) it was 15.0 µg/mL (≈ 68.4 µM); in the data set on SARS-Cov-2 SA (B.1.351) (setting [7]), 19.2 µg/mL (≈ 87.6 µM); with SARS-Cov-2 UK (B.1.1.7) (setting [7]) it was more than 200 µg/mL. Also, the IC90 (in data set [1] (setting [8]); in the data set with SARS-Cov-2 SA (B.1.351) (setting [8]); with SARS-Cov-2 UK (B.1.1.7) (setting [8])) was more than 200 µg/mL each time. For the same molecule, the “activity against strains of SARS-CoV-2” value in the data set on SARS-CoV-2 [2] is on record as “active against at least one strain”. The values for the EC50 with SARS-CoV-2 [3] and in the data set with SARS-CoV-1 were 19.9 ± 3.4 µM and approximately 100 µg/mL (≈ 456 µM), respectively. For the same molecule, in the data set with Huh7-hACE2 cells [4], the “lack of cytotoxicity up to the highest concentrations tested” value is 200 µM. Further, the CC50 in the data set with Huh7-hACE2 cells [6] is more than 1000 µM. Further, the cytotoxicity entry in the data set with cells in culture is “little cytotoxicity”.
In the case of `[N-]=[N+]=Nc1ccc(NCCCCCCN2C[C@H](O)[C@@H](O)[C@H](O)[C@H]2CO)c([N+](=O)[O-])c1` [NAP-DNJ, N-(6′-[4″-azido-2″-nitrophenylamino]hexyl)-1-deoxynojirimycin], the IC50 was 1.4 µg/mL (≈ 3.3 µM) in data set [1] (setting [7]), 0.1 µg/mL (≈ 0.236 µM) in the data set on SARS-Cov-2 SA (B.1.351) (setting [7]), 1.7 µg/mL (≈ 4.01 µM) with SARS-Cov-2 UK (B.1.1.7) (setting [7]) and less than 10 µg/mL in the data set on SARS-CoV-2 [2] (setting [9]). Moreover, the IC90 is 10.2 µg/mL (≈ 24 µM) in data set [1] (setting [8]), 5.7 µg/mL (≈ 13.4 µM) in the data set on SARS-Cov-2 SA (B.1.351) (setting [8]), 7.9 µg/mL (≈ 18.6 µM) with SARS-Cov-2 UK (B.1.1.7) (setting [8]) and less than 40 µg/mL in the data set with SARS-CoV-2 [2] (setting [9]). Besides, in the data set on SARS-CoV-2 [2], the “activity against strains of SARS-CoV-2” value is “active against at least three strain”.
With `OCC(CO)N[C@H]1C[C@](O)(CO)[C@@H](O)[C@H](O)[C@H]1O` [Voglibose], the figures for the IC50 (in [1] (setting [7]); with SARS-Cov-2 SA (B.1.351) (setting [7]); with SARS-Cov-2 UK (B.1.1.7) (setting [7])) were more than 200 µg/mL, 91.2 µg/mL (≈ 341 µM) and more than 200 µg/mL, respectively. Moreover, the IC90 (in [1] (setting [8]); in the data set with SARS-Cov-2 SA (B.1.351) (setting [8]); in the data set with SARS-Cov-2 UK (B.1.1.7) (setting [8])) was more than 200 µg/mL throughout. Also, the “activity against strains of SARS-CoV-2” value in the data set with SARS-CoV-2 [2] is reported as “active against at least one strain”.
